Experiment: in vitro
Conditions: human, hela cells, % viability

Cn1ccnc1CNc1nc(C(C)(C)C)nc2c1cnn2C [CBK306894]
viability at 28.5 h, 10 µM: 100%

O=c1[nH]c2ccccc2n1C1CCN(CCOC(c2ccc(F)cc2)c2ccc(F)cc2)CC1 [CBK099807G]
viability at 28.5 h, 10 µM: 101%

N#Cc1ccc(CN2CCCCC2c2[nH]ncc2C(N)=O)c(Cl)c1 (stereo not drawn) [CBK304261]
viability at 28.5 h, 10 µM: 91.4%

CCC1CCCCN1C(=O)c1ccc(NC2CC2)nc1 (stereo not drawn) [CBK304815]
viability at 28.5 h, 10 µM: 92.2%

COc1ccc2nc(-c3ccc(F)c(NC(=O)c4ccccc4)c3)cn2n1 [CBK287827]
viability at 28.5 h, 10 µM: 110%

NC(=O)C1CCN(c2ncnc3c2oc2ccccc23)CC1 [CBK287789]
viability at 28.5 h, 10 µM: 87.6%

O=C(O)C1CCN(Cc2ccc(Cl)cc2)CC1 [CBK286895]
viability at 28.5 h, 10 µM: 89.3%

Cc1ccc(F)c(NS(=O)(=O)Cc2ccccc2)c1 [CBK038438]
viability at 28.5 h, 10 µM: 111%

Cc1ccc(CN2CCC(O)(Cn3ccc4ncccc43)CC2)o1 [CBK284751]
viability at 28.5 h, 10 µM: 97.7%

O=[N+]([O-])c1ccc(CN2CCC(Oc3nccnc3OCCN3CCOCC3)CC2)cc1 [CBK082923T]
viability at 28.5 h, 10 µM: 91%

Cn1nccc1C(=O)C1CCN(C(=O)c2cc3c(s2)CCC3)CC1 [CBK284427]
viability at 28.5 h, 10 µM: 78.6%

CCc1c(C)nc2c(C(=O)N3CCCC3COC)cnn2c1C (stereo not drawn) [CBK162146]
viability at 28.5 h, 10 µM: 92.1%

CCN(CC)C(=O)C1CCCN(C(=O)NCCCSC)C1 (stereo not drawn) [CBK156118]
viability at 28.5 h, 10 µM: 95.1%

CCCC(=O)c1ccc2c(c1)CC(N(CCC)CCC)C2 (stereo not drawn) [CBK023971C]
viability at 28.5 h, 10 µM: 95.1%

Cc1ccc(OCC(=O)Nc2cc(Cl)ccc2O)cc1C [CBK265968]
viability at 28.5 h, 10 µM: 108%

O=C(c1ccoc1)N1CCC2(CCCN(Cc3ccc4ccccc4c3)C2)C1 (stereo not drawn) [CBK132811]
viability at 28.5 h, 10 µM: 90.1%

O=c1n(-c2ccc(OC(F)(F)F)cc2)ccn1S(=O)(=O)c1ccc(Cl)c(Cl)c1 [CBK106656]
viability at 28.5 h, 10 µM: 94.7%

Clc1cccc(-c2cncc(N3CCN(c4ccncc4)CC3)n2)c1 [CBK066099]
viability at 28.5 h, 10 µM: 95.4%

Cc1sc(-c2ccc(C(F)(F)F)cc2)nc1COc1cncc(N2CCNCC2)n1 [CBK172383G]
viability at 28.5 h, 10 µM: 85.6%

O=Cc1c(-[n+]2ccc(-c3ccncc3)cc2)nc([O-])n1-c1ccccc1 [CBK261529]
viability at 28.5 h, 10 µM: 108%

Cc1nn(Cc2nnc(-c3cccs3)o2)c(C)c1Br [CBK010809]
viability at 28.5 h, 10 µM: 87.7%

CCCN1CCC(NC(=O)Cn2nnc3ccccc3c2=O)CC1 [CBK305581]
viability at 28.5 h, 10 µM: 102%

COc1ccc2[nH]cc(C(=O)NCCn3nc(C)c(C)c3C)c2c1 [CBK281389]
viability at 28.5 h, 10 µM: 88.2%

O=C(COc1cccnc1)NCc1ccc(-c2csnn2)cc1 [CBK149312]
viability at 28.5 h, 10 µM: 93.1%

COc1cccc(-n2ccn(C(=O)CCC3CCCC3)c2=O)c1 [CBK106625]
viability at 28.5 h, 10 µM: 91.1%

O=C(Nc1nc2c(s1)CCc1ccccc1-2)C1CC1 [CBK287330]
viability at 28.5 h, 10 µM: 85.3%

Cc1[nH]nc(Nc2ccc(C(=O)O)cc2)c1[N+](=O)[O-] [CBK262726]
viability at 28.5 h, 10 µM: 80%

CC(=O)Nc1ccc(S(=O)(=O)N2CCN(C(=O)COc3ccc4ccccc4c3)CC2)cc1 [CBK264164]
viability at 28.5 h, 10 µM: 103%

O=C(O)c1ccc(NS(=O)(=O)c2ccc(Br)c3ccccc23)cc1O [CBK299772]
viability at 28.5 h, 10 µM: 86.5%

O=C(O)/C=C\C(=O)Nc1ccc(Cl)c(NC(=O)Cc2ccccc2)c1 [CBK263955]
viability at 28.5 h, 10 µM: 93.7%

Cc1ccccc1NC(=O)c1c(NC(=O)Cc2ccccc2)sc2c1CCCC2 [CBK262572]
viability at 28.5 h, 10 µM: 108%

CC(=O)c1c(C)oc2ccc(N(C(C)=O)S(=O)(=O)c3ccc(C(=O)O)cc3)cc12 [CBK299790]
viability at 28.5 h, 10 µM: 106%

Cc1cccc(-c2noc(C)c2C(=O)NCCn2ccc(C)n2)c1 [CBK282656]
viability at 28.5 h, 10 µM: 96.4%

Nc1nonc1N/N=C/c1ccccc1F [CBK028838]
viability at 28.5 h, 10 µM: 68.4%

O=C(O)c1ccccc1OCCCCOc1cccc2cccnc12 [CBK264136]
viability at 28.5 h, 10 µM: 87.2%

COc1ccc(S(=O)(=O)Nc2nc(C)c(C(=O)Nc3ccc(F)cc3)s2)cc1OC [CBK050538]
viability at 28.5 h, 10 µM: 103%

O=C(NCC1CCN(c2ccc(F)c(F)c2)C1)c1c[nH]nc1C1CC1 (stereo not drawn) [CBK305409]
viability at 28.5 h, 10 µM: 91%

CC(=O)N(C)c1nc(-c2ccco2)ccc1C(=O)Nc1cc(C)nn1C [CBK106356]
viability at 28.5 h, 10 µM: 89.3%

Cc1noc([C@@H]2C[C@H](NC(=O)c3ccc(C#N)cc3)CN2C)n1 [CBK288872]
viability at 28.5 h, 10 µM: 97.6%

CCOc1ccccc1Nc1nc(N)nc(CN2CCCCC2C)n1 (stereo not drawn) [CBK266548]
viability at 28.5 h, 10 µM: 105%

Cc1ccc2c(CC(=O)N3CCC(C(=O)O)CC3)coc2c1 [CBK286711]
viability at 28.5 h, 10 µM: 79.9%

CN1CCN(C(=O)COc2ccc(S(=O)(=O)Nc3ccc(Cl)cc3)cc2)CC1 [CBK268248]
viability at 28.5 h, 10 µM: 102%

NC(=O)NC(CC(=O)N1CCc2sccc2C1)c1cccc(Br)c1 (stereo not drawn) [CBK305813]
viability at 28.5 h, 10 µM: 95%

Nc1ccccc1CC(c1c[nH]c2ccccc12)c1c[nH]c2ccccc12 [CBK261780]
viability at 28.5 h, 10 µM: 103%

CCCCC(=O)N(C)c1c(C)nc2ccc(C(=O)Nc3ccc(C(N)=O)cc3)cn12 [CBK147066]
viability at 28.5 h, 10 µM: 94.5%

COc1ccc(NC(=O)NS(=O)(=O)c2sc3ccc(Cl)cc3c2C)cc1OC [CBK156300]
viability at 28.5 h, 10 µM: 91.3%

CC(C)(C)c1cc(CCC(c2cc(C(C)(C)C)c(O)c(C(C)(C)C)c2)c2cc(C(C)(C)C)c(O)c(C(C)(C)C)c2)cc(C(C)(C)C)c1O [CBK261271]
viability at 28.5 h, 10 µM: 92.9%

COc1ccc(CCNC(=O)N(C)C2CCN(C)C2)cc1OC (stereo not drawn) [CBK156007]
viability at 28.5 h, 10 µM: 97.9%

Cc1ccc(O)cc1CC[C@@H]1CC(=O)CC2(C)C1CC[C@]2(O)C(=O)COC(=O)CCC(=O)O (stereo partly drawn) [CBK007270]
viability at 28.5 h, 10 µM: 119%

Cc1ncsc1CCOc1cc(NC(C)C)ncn1 [CBK115884]
viability at 28.5 h, 10 µM: 84.8%

O=C(NNC(=O)c1ccc2c(c1)C(=O)N(Cc1ccco1)C2=O)c1cccnc1 [CBK267403]
viability at 28.5 h, 10 µM: 91%

CN1CCN(C(=O)c2ccc(-c3cccc(C(=O)NCCO)c3)nc2N(C)C)CC1 [CBK076581]
viability at 28.5 h, 10 µM: 91.8%

COc1ccnc(N2CCN(C(=O)c3cnn(C)c3)CC2)n1 [CBK306125]
viability at 28.5 h, 10 µM: 90.7%

COc1cccc(CNc2ccc(S(N)(=O)=O)cc2)c1OCc1ccccc1F [CBK267906]
viability at 28.5 h, 10 µM: 108%

NS(=O)(=O)c1ccc(S(=O)(=O)NCCc2c[nH]c3ccccc23)cc1 [CBK266691]
viability at 28.5 h, 10 µM: 82.2%

COc1cccc2c(O)cnnc12 [CBK026139]
viability at 28.5 h, 10 µM: 87.2%

O=C1C(=CNCCN2CCOCC2)C(=O)c2ccccc21 [CBK263008]
viability at 28.5 h, 10 µM: 109%

CC(=O)Nc1ccccc1NC(=O)C(C)Oc1ccc(Cl)cc1Cl (stereo not drawn) [CBK263954]
viability at 28.5 h, 10 µM: 96.8%

Cc1cc(S(=O)(=O)Nc2ccccc2-c2nnnn2C(C)C)c(C)o1 [CBK306259]
viability at 28.5 h, 10 µM: 111%

O=C(O)c1c(Cl)c(C(=O)O)c(C(=O)O)c(Cl)c1C(=O)O [CBK261177]
viability at 28.5 h, 10 µM: 96.8%

C#CCNC(=O)c1nn(Cc2ccc(CN3C(=O)CCC3=O)cc2)c2ccc(OC)cc12 [CBK048668]
viability at 28.5 h, 10 µM: 86.2%

Clc1ccc(-c2csc(NCc3ccco3)n2)cc1 [CBK058168]
viability at 28.5 h, 10 µM: 109%

C=CCNC(=O)N[C@H]1CO[C@H]2[C@@H]1OC[C@H]2OC(=O)Nc1ccccc1 [CBK289466]
viability at 28.5 h, 10 µM: 115%

From paper PMC12040169 (PLOS Biology, 2025)
